The values below come from publication PMC6073568, “Efficient Lead Finding, Activity Enhancement and Preliminary Selectivity Control of Nuclear Receptor Ligands Bearing a Phenanthridinone Skeleton” (International Journal of Molecular Sciences, 2018).

pIC50: −log10 of the molar value.

One test deals with T1, LXRα (Homo sapiens, UniProt Q13133).
T1 construct: CMX-GAL4N-hLXRα-LBD; expressed in transfected cells; host or cells: HEK293
T1 sequence (Q13133 209-447 limits assumed): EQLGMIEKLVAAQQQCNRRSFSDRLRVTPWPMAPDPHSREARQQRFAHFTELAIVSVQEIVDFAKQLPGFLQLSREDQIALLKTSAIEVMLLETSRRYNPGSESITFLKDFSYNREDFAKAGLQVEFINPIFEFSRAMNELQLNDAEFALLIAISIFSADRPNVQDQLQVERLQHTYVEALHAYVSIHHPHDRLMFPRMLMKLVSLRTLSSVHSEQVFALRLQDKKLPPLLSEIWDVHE
In words: LXRα reporter gene assay in HEK293. The test is classed as cell-based. The note with it: read-out: LXRα antagonistic activity (IC50).

In another test the target is T2, LXRβ (Homo sapiens, UniProt P55055).
T2 construct: CMX-GAL4N-hLXRβ-LBD; expressed in transfected cells; host or cells: HEK293
T2 sequence (P55055 222-460 limits assumed): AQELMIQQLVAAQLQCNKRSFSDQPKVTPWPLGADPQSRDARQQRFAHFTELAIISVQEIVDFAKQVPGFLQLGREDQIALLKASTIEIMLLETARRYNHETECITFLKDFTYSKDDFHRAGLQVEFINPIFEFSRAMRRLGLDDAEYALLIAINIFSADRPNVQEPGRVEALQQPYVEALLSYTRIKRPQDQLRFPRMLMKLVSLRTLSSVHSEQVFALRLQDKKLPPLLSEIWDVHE
Briefly: LXRβ reporter gene assay in HEK293. The test is classed as cell-based. The conditions noted are these: read-out: LXRβ antagonistic activity (IC50). For orientation: Reporter assays use an easily measured gene product as a stand-in for the process of interest.

The target in another test is T3, RORα (Homo sapiens, UniProt P35398).
T3 construct: expressed in transfected cells; host or cells: HEK293
T3 sequence (P35398 1-523): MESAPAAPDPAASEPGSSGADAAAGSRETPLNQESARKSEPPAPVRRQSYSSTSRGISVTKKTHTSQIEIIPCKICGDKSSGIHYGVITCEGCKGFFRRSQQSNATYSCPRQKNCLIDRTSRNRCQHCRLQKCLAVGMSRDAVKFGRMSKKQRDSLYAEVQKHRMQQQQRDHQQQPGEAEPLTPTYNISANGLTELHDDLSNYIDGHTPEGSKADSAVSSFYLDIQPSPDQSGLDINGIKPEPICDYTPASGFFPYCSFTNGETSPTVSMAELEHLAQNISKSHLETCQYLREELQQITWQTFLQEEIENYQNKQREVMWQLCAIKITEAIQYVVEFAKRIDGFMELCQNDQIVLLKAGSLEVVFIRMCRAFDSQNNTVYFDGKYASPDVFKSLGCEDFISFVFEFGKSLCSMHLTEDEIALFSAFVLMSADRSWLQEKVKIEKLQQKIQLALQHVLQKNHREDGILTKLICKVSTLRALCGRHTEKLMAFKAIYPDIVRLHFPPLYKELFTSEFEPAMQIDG
The note with it: reporter gene assay, HEK293; read-out: RORα inverse agonistic activity (IC50); cited from earlier work.

Another test addresses T4, AR (Homo sapiens, UniProt P10275).
T4 sequence (P10275 1-920): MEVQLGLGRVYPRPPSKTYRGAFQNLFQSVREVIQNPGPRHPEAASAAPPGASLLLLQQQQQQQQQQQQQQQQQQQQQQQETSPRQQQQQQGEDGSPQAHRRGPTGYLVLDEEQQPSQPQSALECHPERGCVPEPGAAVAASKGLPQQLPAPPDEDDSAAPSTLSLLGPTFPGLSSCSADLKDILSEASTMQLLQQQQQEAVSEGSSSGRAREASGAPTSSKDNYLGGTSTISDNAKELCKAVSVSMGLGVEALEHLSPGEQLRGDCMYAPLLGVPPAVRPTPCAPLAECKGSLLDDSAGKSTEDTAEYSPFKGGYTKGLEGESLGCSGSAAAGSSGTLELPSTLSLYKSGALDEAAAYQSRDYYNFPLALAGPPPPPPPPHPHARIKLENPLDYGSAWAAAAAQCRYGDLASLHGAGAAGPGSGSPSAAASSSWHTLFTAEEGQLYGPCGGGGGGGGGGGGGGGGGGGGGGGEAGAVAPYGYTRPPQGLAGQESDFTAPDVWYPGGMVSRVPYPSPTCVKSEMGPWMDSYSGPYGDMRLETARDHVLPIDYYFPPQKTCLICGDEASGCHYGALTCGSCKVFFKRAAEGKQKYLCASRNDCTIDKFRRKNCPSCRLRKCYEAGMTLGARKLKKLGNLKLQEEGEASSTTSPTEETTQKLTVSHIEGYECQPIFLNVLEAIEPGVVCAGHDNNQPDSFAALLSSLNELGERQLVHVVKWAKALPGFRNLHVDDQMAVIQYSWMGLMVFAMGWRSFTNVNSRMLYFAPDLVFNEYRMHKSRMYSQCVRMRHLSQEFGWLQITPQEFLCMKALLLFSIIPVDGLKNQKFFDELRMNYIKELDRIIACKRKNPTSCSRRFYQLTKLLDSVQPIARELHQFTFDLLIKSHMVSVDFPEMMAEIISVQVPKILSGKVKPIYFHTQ
Briefly: AR reporter gene assay in HEK293. Type of test: cell-based. The conditions noted are these: reporter gene assay, HEK293; agonist dihydrotestosterone 0.3 nM; read-out: AR antagonistic activity (IC50), AR reporter gene.

A further test concerns the target T5, RORβ (Homo sapiens, UniProt Q92753).
T5 construct: expressed in transfected cells; host or cells: HEK293
T5 sequence (Q92753 1-459 isoform Q92753-1): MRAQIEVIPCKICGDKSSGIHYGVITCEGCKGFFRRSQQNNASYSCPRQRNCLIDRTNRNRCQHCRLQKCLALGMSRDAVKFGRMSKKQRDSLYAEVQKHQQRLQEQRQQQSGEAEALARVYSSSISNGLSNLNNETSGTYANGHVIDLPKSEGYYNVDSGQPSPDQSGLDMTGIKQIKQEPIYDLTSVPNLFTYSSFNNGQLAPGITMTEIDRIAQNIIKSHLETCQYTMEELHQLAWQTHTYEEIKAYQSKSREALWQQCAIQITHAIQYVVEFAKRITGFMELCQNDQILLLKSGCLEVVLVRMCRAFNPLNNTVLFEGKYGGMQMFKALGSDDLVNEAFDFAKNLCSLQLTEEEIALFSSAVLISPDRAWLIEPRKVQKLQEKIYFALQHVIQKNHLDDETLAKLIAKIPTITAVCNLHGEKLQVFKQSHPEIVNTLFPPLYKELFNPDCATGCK
The conditions noted are these: reporter gene assay, HEK293; read-out: RORβ inverse agonistic activity (IC50); cited from earlier work.

For the compound `CCCCn1c(=O)c2ccccc2c2cc(C(O)(C(F)(F)F)C(F)(F)F)c(OC)c(OC)c21` [Compound 25], the pIC50 – broadly, −log10 of the IC50, conventionally taken in molar units – on LXRα is 5.07; on LXRβ, 5.02; on RORα it was less than 5.00; on AR it was 5.21; at RORβ, less than 5.00.

On to `O=c1[nH]c2c(F)cc(C(O)(C(F)(F)F)C(F)(F)F)cc2c2ccccc12` [Compound 32], for which the pIC50 at LXRα was 5.51; on LXRβ, 5.34; at RORα it was 4.82; at AR it was 6.41; at RORβ, 4.85.

Regarding `CCCCn1c(=O)c2c(OC)c(OC)ccc2c2cc(C(O)(C(F)(F)F)C(F)(F)F)ccc21` [Compound 29], the pIC50 at LXRα is 5.49; on LXRβ, 5.49; on RORα it was 5.14; at AR, 5.34; at RORβ, 5.11.

Consider `O=c1[nH]c2ccc(C(O)(C(F)(F)F)C(F)(F)F)cc2c2cccc(F)c12` [Compound 33], for which the pIC50 on LXRα was 5.51; at LXRβ it was 5.51; at RORα, 5.10; on AR, 6.34; on RORβ, 5.01.

Turning to `CCCCn1c(=O)c2c(OC)cc(OC)cc2c2cc(C(O)(C(F)(F)F)C(F)(F)F)ccc21` [Compound 30], the pIC50 at LXRα, on LXRβ, at RORα, on AR and at RORβ was less than 4.70 in each case.

As for `CCCCn1c(=O)c2cc(OC)ccc2c2cc(C(O)(C(F)(F)F)C(F)(F)F)cc(OC)c21` [Compound 28], the pIC50 on LXRα is less than 5.00; at LXRβ it was less than 5.00; at RORα it was 4.96; on AR it was 5.77; at RORβ it was 4.96.

Turning to `CCc1cc(C(O)(C(F)(F)F)C(F)(F)F)cc2c1[nH]c(=O)c1ccccc12` [Compound 41], the negative logarithm of the IC50 (pIC50) was less than 4.70 on LXRα; less than 4.70 on LXRβ; less than 4.70 on RORα; 4.85 at AR; less than 4.70 on RORβ.

Take `CCCCn1c(=O)c2ccccc2c2cc(C(O)(C(F)(F)F)C(F)(F)F)c3c(c21)OCO3` [Compound 26]: the pIC50 at LXRα is less than 4.70; on LXRβ it was less than 4.70; on RORα it was less than 4.70; at AR it was 6.27; on RORβ, less than 4.70.

In the case of `CCCCn1c(=O)c2cc(OC)c(OC)cc2c2cc(C(O)(C(F)(F)F)C(F)(F)F)ccc21` [Compound 31], the negative-log IC50 (pIC50) was 5.06 on LXRα; 5.05 at LXRβ; 4.74 at RORα; 5.80 on AR; 4.80 at RORβ.
